Patent US4305951A, “Novel amino derivatives of 5-(2-hydroxystyryl)-isoxazole, their preparation and therapeutic formulations containing these compounds” (BASF Aktiengesellschaft, priority 1979, dated 1981)
Entries after “also recorded” stand apart in the source; their conditions may differ.

Key:
[1] = tested on: blood pressure in the carotid artery; experiment: Hypotensive action on narcotized rats; assay type: in vivo, rat (Sprague-Dawley); conditions: for ED20: Rattus norvegicus, read-out: ED 20% (dose which lowers the mean carotid blood pressure by 20%)
Experimental: To test the hypotensive action, the compounds are administered intravenously to male Sprague-Dawley rats (weight: 230-280 g) under urethane narcosis (1.78 g/kg administered intraperitineally).
The blood pressure in the carotid artery is measured by means of a Statham transducer. The ED 20% is determined as the dose which lowers the mean carotid pressure by 20%.
^(2) Rats. Urethane narcosis. Intravenous administration. ED 20% =
dose [in mg/kg] which lowers the blood pressure by 20%.

[2] = in vivo; conditions: for LD50: ip
From the text: Intraperitoneal administration.

[3] = tested on: isoproterenol-induced tachycardia; experiment: β-Sympatholytic action: inhibition of isoproterenol-induced tachycardia in pithed rats; conditions: for ED50: Rattus norvegicus, read-out: ED 50% (dose which inhibits the isoproterenol-induced increase in pulse rate by 50%)
[4] = urethane narcosis, intravenous administration

Row | SMILES | ED20 [1, 4] | Q: lethal dose as multiple of the β-sympatholytically effective dose ([2]; mouse, in vivo) | selectivity ratio ([2]; mouse, in vivo) | LD50 ([2]; mouse, in vivo) | ED50 ([3]; iv) | β-sympatholytic activity compared with propranolol (in words) ([3]; pithed rats, intravenous) | R.A. = relative activity (β-sympatholytic) ([3]; rat, in vivo, iv) | ED 20% (dose which lowers the mean carotid blood pressure by 20%) [1, 4] | Q: lethal dose as multiple of the β-sympatholytically effective dose ([2]; LD 50 mice i.p. / ED 50% pithed rats i.v.) | increase of blood pressure ([1]; 2.15 mg/kg intravenous, urethane narcosis) | lowering of blood pressure ([1]; 4.64 mg/kg intravenous, urethane narcosis, average) | animals that died ([1]; 10 mg/kg intravenous, urethane narcosis) | hypotensive action (in words) ([1]; acute test, intravenous) | R.A. = relative activity (β-sympatholytic) ([3]; Propranolol = 1.00, pithed rats, intravenous)
1 | Cc1cc(/C=C/c2ccccc2OCC(O)CNC(C)CCc2ccc(O)cc2)on1 (centres unmarked) [Example 3, 3-methyl-5-[2-[2-hydroxy-3-(3-(4-hydroxyphenyl)-1-methylpropylamino)-propoxy]-styryl]-isoxazole] | 0.49 mg/kg | 24,600 | 24600 | 261 mg/kg | 0.0106 mg/kg | corresponds approximately to that of propranolol | 1.20 | – | – | – | – | – | – | –
2 | COc1ccc(CCNCC(O)COc2ccccc2/C=C/c2cc(C)no2)cc1OC (centres unmarked) [Example 4, 3-methyl-5-[2-[2-hydroxy-3-(2-(3,4-dimethoxyphenyl)-1-ethylamino)-propoxy]-styryl]-isoxazole] | 0.7 mg/kg | – | 29900 | 642 mg/kg | 0.0215 mg/kg | corresponds approximately to that of propranolol | 0.59 | 0.70 mg/kg | 29,900 | – | – | – | – | –
3 | CC(C)NCC(O)COc1cccc2ccccc12 (centres unmarked) [Propranolol, propranolol] | – | – | – | – | – | – | – | – | – | 11% | 36% | 2 out of 6 | does not have a hypotensive effect in acute test conditions; also recorded: up to doses of 2.15 mg/kg, does not lower the blood pressure | 1.00
